One block for each compound: values may come before it.
Assays:
[1] = cited from earlier work; for share of the total dose eliminated as metabolite: oral administration of Ivacaftor
CFTR protein = CFTR protein (Homo sapiens, UniProt P13569); conditions: fraction of the potency of Ivacaftor; cited from earlier work
[2] = cited from earlier work
CYP3A = conditions: in-vitro and clinical studies, humans; cited from earlier work
[3] = Apparent solubility by UV-VIS after 100 nm filtration; format: physicochemical; conditions: ultrapurified water, thermodynamic from solid, comparative formulation study, read-out: apparent solubility (comparative measurements, FIG. 15)
Description: (§1) The solid complex Ivacaftor formulations were dispersed in ultrapurified water in 1-10 mg/mL Ivacaftor equivalent concentration range. The resulting solutions were filtered by 100 nm disposable syringe filter. The Ivacaftor content in the filtrate was measured by UV-Vis spectrophotometry and the apparent solubility was calculated. The filtrate may contain Ivacaftor complex particles which could not be filtrated out using 100 nm pore size filter.
as §1, with “1” for “1-10”

Chain of CFTR protein (P13569 whole entry): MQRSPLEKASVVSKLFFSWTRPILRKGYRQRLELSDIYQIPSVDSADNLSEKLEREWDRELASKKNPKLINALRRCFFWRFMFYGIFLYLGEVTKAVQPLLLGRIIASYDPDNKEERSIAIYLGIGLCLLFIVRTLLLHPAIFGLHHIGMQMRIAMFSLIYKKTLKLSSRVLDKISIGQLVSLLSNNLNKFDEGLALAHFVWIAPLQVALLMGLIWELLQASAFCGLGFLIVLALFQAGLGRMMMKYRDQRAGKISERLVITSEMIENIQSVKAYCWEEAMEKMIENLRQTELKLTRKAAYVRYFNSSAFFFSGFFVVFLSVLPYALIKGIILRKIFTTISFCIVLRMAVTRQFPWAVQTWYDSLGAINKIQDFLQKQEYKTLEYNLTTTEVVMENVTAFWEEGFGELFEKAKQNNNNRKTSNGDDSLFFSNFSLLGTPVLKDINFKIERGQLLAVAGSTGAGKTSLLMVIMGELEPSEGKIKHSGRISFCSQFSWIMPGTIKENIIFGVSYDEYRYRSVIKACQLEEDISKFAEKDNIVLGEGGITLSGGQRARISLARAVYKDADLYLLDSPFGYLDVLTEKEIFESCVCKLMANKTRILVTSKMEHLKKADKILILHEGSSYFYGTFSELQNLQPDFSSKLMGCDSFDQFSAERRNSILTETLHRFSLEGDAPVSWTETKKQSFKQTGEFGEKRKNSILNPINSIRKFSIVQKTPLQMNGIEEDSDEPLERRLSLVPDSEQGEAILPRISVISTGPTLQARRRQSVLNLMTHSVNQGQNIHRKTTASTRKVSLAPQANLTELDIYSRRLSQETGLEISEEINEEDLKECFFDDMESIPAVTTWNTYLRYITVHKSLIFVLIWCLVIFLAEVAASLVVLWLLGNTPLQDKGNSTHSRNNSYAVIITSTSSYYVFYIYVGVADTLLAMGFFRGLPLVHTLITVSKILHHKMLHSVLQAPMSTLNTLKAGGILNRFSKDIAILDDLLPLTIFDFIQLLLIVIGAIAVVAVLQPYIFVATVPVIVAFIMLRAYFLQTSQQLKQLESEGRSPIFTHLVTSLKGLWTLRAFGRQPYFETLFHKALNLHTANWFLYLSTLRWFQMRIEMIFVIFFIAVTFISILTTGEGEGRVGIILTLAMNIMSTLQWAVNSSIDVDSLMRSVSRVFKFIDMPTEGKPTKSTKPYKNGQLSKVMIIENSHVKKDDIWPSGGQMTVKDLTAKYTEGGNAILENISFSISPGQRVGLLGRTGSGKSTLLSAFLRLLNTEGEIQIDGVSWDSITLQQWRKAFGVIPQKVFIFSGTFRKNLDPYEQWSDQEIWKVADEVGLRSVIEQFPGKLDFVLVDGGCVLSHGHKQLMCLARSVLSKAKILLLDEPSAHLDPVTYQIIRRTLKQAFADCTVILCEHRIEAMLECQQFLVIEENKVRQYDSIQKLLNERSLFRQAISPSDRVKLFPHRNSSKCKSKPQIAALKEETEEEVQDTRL

SMILES: CC(C)(C)c1cc(C(C)(C)CO)c(O)cc1NC(=O)c1c[nH]c2ccccc2c1=O [M1]
- share of the total dose eliminated as metabolite [1]: 22%
- potency relative to Ivacaftor (CFTR protein): approximately one-sixth

SMILES: CC(C)(C)c1cc(C(C)(C)C)c(NC(=O)c2c[nH]c3ccccc3c2=O)cc1O [Ivacaftor, N-(2,4-di-tert-butyl-5-hydroxyphenyl)-1,4-dihydro-4-oxoquinoline-3-carboxamide]
- solubility in water [2]: < 0.05 microgram/mL
- mean apparent clearance (CL/F), healthy subjects versus patients with CF ([1]; human, in vivo): similar
- eliminated in the feces after metabolic conversion ([1]; oral administration): 87.8%
- urinary excretion as unchanged parent ([1]; oral administration): negligible
- tmax (peak plasma concentrations) ([1]; single 150 mg oral dose, healthy volunteers, fed state): approximately 4 hours
- mean apparent volume of distribution (Vz/F), healthy subjects versus patients with CF ([1]; single dose of 275 mg of KALYDECO, fed state): similar
- apparent terminal half-life ([1]; single dose): approximately 12 hours
- metabolism (CYP3A): primarily metabolized by CYP3A

SMILES: CC(C)(C)c1cc(C(C)(C)C(=O)O)c(O)cc1NC(=O)c1c[nH]c2ccccc2c1=O [M6]
- share of the total dose eliminated as metabolite [1]: 43%
- potency relative to Ivacaftor (CFTR protein): less than one-fiftieth

- solubility [3]: < 100 µg/mL
SMILES: CC(C)(C)c1cc(C(C)(C)C)c(NC(=O)c2c[nH]c3ccccc3c2=O)cc1O [crystalline Ivacaftor, N-(2,4-di-tert-butyl-5-hydroxyphenyl)-1,4-dihydro-4-oxoquinoline-3-carboxamide]

Source: patent US10675277B2, “Complexes of ivacaftor and its salts and derivatives, process for the preparation thereof and pharmaceutical compositions containing them” (NanGenex Nanotechnology Incorporated, priority 2016, dated 2020)
